Test results as given in PMC4568483, “A spheroid toxicity assay using magnetic 3D bioprinting and real-time mobile device-based imaging” (Scientific Reports, 2015).
pIC50: −log10 of the molar value. Like-named read-outs stand apart in the source and are kept apart here.

Columns and labels:
[1] = test system: 3T3 spheroids; assay: Spheroid toxicity assay (contraction of magnetically 3D bioprinted spheroids, mobile device imaging); type: cell-based, murine
Description: The spheroid toxicity assay was designed to rapidly assess toxicity in M3DB spheroids (Fig. 1A)[26]. At 70–80% confluence, 3T3s grown in 2D were statically incubated overnight with magnetic nanoparticles, allowing for nanoparticle association with the cells (NanoShuttle, Nano3D Biosciences, Houston, TX) at a concentration of 1 μL/1 × 10^4 cells (50 pg/cell)[18][25]. Cells were magnetized by the electrostatic and non-specific attachment of nanoparticles to the cell membrane via poly-L-lysine. Once attached onto the membrane, the nanoparticles remain for 7–8 d before releasing into the ECM[18]. If internalized, the nanoparticles will exit the cell still attached to the membrane.
After magnetization, the cells were enzymatically detached with trypsin, resuspended in media, then distributed into ultra-low attachment 6-well plates (Corning, Tewksbury, MA) at a concentration of 3.2 × 10^6 cells in 2 mL (1.6 × 10^6 cells/mL). A magnetic drive of 6 neodymium magnets (Nano3D Biosciences) was placed atop the well plate to levitate the cells in 3D (500 G, 30 pN, see Supplemental Fig. S12). The purpose of this levitation step was to induce ECM formation, as was shown previously with primary human pulmonary fibroblasts and tracheal smooth muscle cells that extruded laminin after 1 h of levitation. […] After 1 h of levitation, the levitated cultures were broken up and resuspended in media using pipette action to yield a suspension of magnetized cells and ECM, which was distributed into an ultra-low attachment 96-well plate (Corning) at a concentration of 7.5 × 10^4 cells/well (n = 3 per compound concentration). Immediately afterwards, the plate was placed atop a magnetic drive of 96 neodymium magnets (0.0625” OD, Nano3D Biosciences) to attract the cells (120 G, 10 pN, see Supplemental Fig. S12) and ECM to the bottom of the well to form a spheroid. These spheroids were printed on the magnets for 15 min. At this point, the cells within the spheroids were connected but loose, and their competency could be empirically assessed by their ability to stay together when the magnet was removed. Towards the end of the printing time, compounds were added to the wells achieve their final concentrations. The plate was then removed from the magnet and the spheroids were allowed to contract.
M3DB spheroids and their contraction were imaged using a mobile device-based imaging system (Fig. 1B)[26]. After printing, the plate of spheroids were placed atop an acrylic imaging apparatus with a mobile device (iPod touch 5th generation, 16 GB, Apple Computer, Cupertino, CA) below the plate facing upwards, and a light source (LightPad A920, Artograph, Delano, MN) above the plate to illuminate the images. The mobile device was programmed using an application (Experimental Assistant, Nano3D Biosciences) to image the plate every 4 min for a period of 10 h. When the spheroids had finished contracting, the images were transferred to a computer where they were analyzed using a custom image analysis code written in Python that processed thousands of images in hours. The area of the spheroid was measured over time, as well as the rate of contraction for the first 150 min using a linear least-squares fit (OriginPro, OriginLab, Northampton, MA). The rates of contraction served as the endpoint for the assay, and were plotted against compound concentration and fit to a Boltzmann sigmoidal function (OriginPro) from which the IC50’s were determined.

[2] = test system: 3T3s in 2D; assay: MTT assay on 2D monolayers, viability after 72 h; type: cell-based, murine; details: for MTT IC50 / pIC50: 2D, viability at 72 h; for Effect on viability in 2D: MTT
Description: The MTT assay was performed to compare its endpoint, viability of 3T3s in 2D after 72 h, with spheroid contraction. 3T3s were seeded on 96-well plates (n = 3 per compound concentration) at a concentration of 2.5 × 10^4 cells/well to adhere overnight. The following day, compounds were added to each well at the desired concentration. After 72 hours of incubation, the media was replaced with 10% MTT (Sigma-Aldrich) in media. The cells were incubated with the reagent for at least 4 hours at 37 °C. Following incubation, the media was aspirated and the remaining formazan was dissolved in acidified isopropanol (0.1 N HCl). The absorbance of the solution was then read at 570 nm in a spectrophotometer (SpectraMax Plus 384, Molecular Devices, Sunnyvale, CA) with background subtraction at 690 nm. Dose-response curves were plotted and fit to a Boltzmann sigmoidal function (OriginPro) similarly to the spheroid toxicity assay.

[3] = test system: 3T3s; details: 2D, read-out: Literature IC50, cited from earlier work
[4] = test system: 3T3 spheroids; assay: MTT assay on 3T3 spheroids; type: cell-based, murine; details: 3D spheroids
Excerpt: Figure S7: Dose response curves of 3T3 spheroids exposed to ATRA, SDS, and penicillin-G as measured by the MTT assay.

[5] = test system: 3T3 spheroids; assay: Gene expression profiling (mRNA sequencing) of spheroids with and without ATRA; details: 41.6 μM ATRA
[6] = 3D, endpoint rate of contraction over 150 min
[7] = ref NIEHS Registry of Cytotoxicity [35]
[8] = Mus musculus, 2.5 h, 3D, endpoint rate of contraction over 150 min

For O=c1[nH]cc(F)c(=O)[nH]1 [5′-fluorouracil], the pIC50 [1, 6] was 3.60, the “MTT IC50” value [2] was “n.s” and the “Effect on viability in 2D” value ([2]; 72 h) was “no significant effect”. The pIC50 [3, 7] was 5.59.
For CC1=C(/C=C/C(C)=C/C=C/C(C)=C/C(=O)O)C(C)(C)CCC1 [ATRA, all-trans retinoic acid], the “Concentration at and above which spheroid contraction was affected” value [1] was at least 41.6 µM, the pIC50 [1, 8] was 4.08 and the “Fate of 3T3s in 2D on exposure” value ([2]; 2D culture, 41.6 μM ATRA, 72 h) was “lysed before 72 h”. For the same compound, the pIC50 ([2]; Mus musculus) was 4.61, the “Dose response of spheroid viability by MTT” value (“Dose response” for short) [4] was “significant dose-dependent response” and the pIC50 ([3]; ref Seiler et al., 2011 [16]) was 4.70. The “Expression of genes for apoptotic inhibitors (BCL2, BIRC2, BIRC3)” value [5] was “downregulation”, the “Expression of the gene for p53” value [5] was “upregulation” and the “Number of genes downregulated as a function of exposure” value [5] was 40 genes. For the same compound, the “Number of genes expressed differently between exposed and unexposed spheroids” value ([5]; 72 h exposure, 364 genes profiled) was 99 genes.
For C[C@@H]1C[C@H]2[C@@H]3CCC4=CC(=O)C=C[C@]4(C)[C@@]3(F)[C@@H](O)C[C@]2(C)[C@@]1(O)C(=O)CO [Dexamethasone, dexamethasone], the pIC50 [1, 8] was 4.07, the “MTT IC50” value [2] was “n.s” and the “Effect on viability in 2D” value ([2]; 72 h) was “no significant effect”. The pIC50 ([3]; ref Nakada et al., 1987 [45]) was 8.56.
For COc1cccc2c1C(=O)c1c(O)c3c(c(O)c1C2=O)C[C@@](O)(C(=O)CO)C[C@@H]3O[C@H]1C[C@H](N)[C@H](O)[C@H](C)O1 [Doxorubicin, doxorubicin], the pIC50 [1, 8] is given as 4.33, the pIC50 ([2]; Mus musculus) is given as 4.90 and the pIC50 [3, 7] is given as 6.48.
In the case of C=C[C@@]1(C)CC(=O)[C@]2(O)[C@@]3(C)[C@@H](O)CCC(C)(C)[C@@H]3[C@H](O)[C@H](OC(C)=O)[C@@]2(C)O1 [Forskolin, forskolin], the pIC50 [1, 8] is listed as 5.33, the pIC50 ([2]; Mus musculus) is listed as 6.22 and the pIC50 ([3]; ref Varrault et al., 1992 [46]) is listed as 4.59.
For CC1(C)S[C@@H]2[C@H](NC(=O)Cc3ccccc3)C(=O)N2[C@H]1C(=O)O [Penicillin-G, penicillin-G], the “Spheroid Assay IC50” value [1, 6] was “n.s”, the “Effect on spheroid contraction” value ([1]; rate of contraction over first 150 min) was “no effect on spheroid contraction” and the pIC50 ([2]; Mus musculus) was 2.75. The “Dose response” value [4] was “significant dose-dependent response” and the pIC50 [3, 7] was 2.24.
For CCCCCCCCCCCCOS(=O)(=O)[O-].[Na+] [SDS, sodium dodecyl sulfate], the pIC50 [1, 6] was 3.55, the pIC50 [2] was 3.78 and the “Dose response” value [4] was “significant dose-dependent response”. For the same compound, the pIC50 [3, 7] was 3.57.
